Data: US9873670B2, “Arylquinoline and analog compounds and use thereof to treat cancer” (UNIVERSITY OF KENTUCKY RESEARCH FOUNDATION, priority 2013, dated 2018)
Values belong to the compound of their own block, whether it stands above or below them.

Assays:
[1] = system: mouse embryonic fibroblast (MEF) cells; assay: Par-4 secretion from normal mouse fibroblasts (Western blot of conditioned medium); type: cell-based; details: for level of Par-4 secretion, structure-activity comparison among analogs: normal mouse fibroblasts, conditions not toxic to the cells
Protocol: In another aspect, the subject technology provides assays for screening test compounds that interfere with vimentin binding to PAR-4 or which cause release of vimentin-bound PAR-4. In a typical assay, cells, such as HEL cells, are seeded onto an appropriate support, such as 60-mm plates containing supplemented growth medium (e.g., supplemented with 0.1% serum) at a desired confluency, such as 40-70% confluency, and treated with the test compound (e.g., 500 nM) or control vehicle. The cells are allowed to grow for a period of time, such as 24 hours, after which the conditioned medium (CM) is concentrated (e.g., concentrated 30× to 100 μl using Millipore tubes (Amicon Ultra centrifugal filters, Ultracel-10K) by 15 min centrifugation at 4500 rpm). The concentrated CM is then subjected to co-immunoprecipitation using detectably labeled PAR-4 and vimentin antibodies in the presence of various concentrations of purified PAR-4 and the precipitated proteins are resolved by SDS-PAGE and analyzed by Western blot analysis. The amount of immunoprecipitated PAR-4-vimentin complex is compared to that of control samples. For example, chemiluminescent signals may be quantified in the BIO-RAD Molecular Imager ChemiDoc XRS+Imaging system using Quantity One software. Induction of Par-4 secretion by the test drug (e.g., 500 nM), as judged by this Western blot analysis procedure, will indicate dissociation of Par-4 from vimentin. […] For such experiments, cells may be treated with the test drug (e.g., 500 nM) or vehicle for an appropriate period of time, such as 24 hours, and then cell lysates are prepared and subjected to immunoprecipitation using an appropriate amount of a Par-4 antibody, vimentin antibody or control IgG antibody by using any standard immunoprecipitation procedure. Following […], the complexes are resolved, preferably by Western blot analysis as described above. If the drug inhibits the binding of Par-4 to vimentin, it will be reflected in the lack of co-immunoprecipitation of Par-4 with the vimentin antibody, and co-immunoprecipitation of vimentin with the Par-4 antibody.
Co-Immunoprecipitation and Western blot analysis: Protein extracted from cell lysates was filtered, pre-cleared with 25 μL (bed volume) of protein G-Sepharose beads and immunoprecipitated with 1 μg of respective antibodies. The eluted proteins were resolved by SDS-PAGE, and subjected to Western blot analysis as described.
To identify Par-4 secretagogues, we synthesized and screened 3-arylquinolines as well as related quinolones and quinothiolones for the secretion of Par-4 protein from normal fibroblasts under conditions that are not toxic to the cells.
We screened representative members of each of these heterocyclic families on a compound-by-compound basis for the secretion of Par-4 protein from normal mouse fibroblasts under conditions that were not toxic to the cells. Initial expectations were that these heterocycles would serve as Nutlin-3a surrogates and inhibit MDM2, but studies reported herein established a completely different mechanism of action, reflecting that the structural dissimilarities between these heterocycles and Nutlin-3a outweighed the similarities that led to their initial selection for screening.

Par-4 secretion = assay: Par-4 secretion, cells not specified; type: cell-based

- melting point: 152 to 153 °C
Structure (SMILES): Nc1nc2ccccc2cc1-c1ccccc1F [Arylquin 8, 3-(2-fluorophenyl)quinolin-2-amine]
- level of Par-4 secretion, structure-activity comparison among analogs [1]: highest levels of Par-4 secretion

- melting point: 123 to 125 °C
Structure (SMILES): CN(C)c1ccc2cc(-c3ccccc3)c(N)nc2c1 [Arylquin 7, N^7,N^7-Dimethyl-3-phenylquinoline-2,7-diamine]

- melting point: 142 to 144 °C
Structure (SMILES): CN(C)c1ccc2cc(-c3ccccc3F)cnc2c1 [Arylquin 6, 3-(2-fluorophenyl)-N,N-dimethylquinolin-7-amine]
- level of Par-4 secretion, structure-activity comparison among analogs [1]: highest levels of Par-4 secretion

More lines, now with the values behind:

Structure (SMILES): CN(C)c1ccc2cc(-c3cccc(F)c3)c(N)nc2c1 [Arylquin 2, 3-(3-fluorophenyl)-N^7,N^7-dimethylquinoline-2,7-diamine]
- melting point: 147 to 148 °C

Structure (SMILES): CN(C)c1ccc2cc(-c3ccccc3F)c(=S)[nH]c2c1 [Arylquin 5, 7-(dimethylamino)-3-(2-fluorophenyl)quinoline-2(1H)-thione]
- melting point: 251 to 253 °C

Structure (SMILES): CN(C)c1ccc2cc(-c3ccccc3F)c(SCC(=O)NCCOCCOCCNC(=O)CCCCC3SCC4NC(=O)NC43)nc2c1 (centres unmarked) [Biotinylated Arylquin 9, N-(2-(2-(2-(2-(7-(dimethylamino)-3-(2-fluorophenyl)quinolin-2-ylthio)acetamido)ethoxy)ethoxy)ethyl)-5-(2-oxohexahydro-1H-thieno[3,4-d]imidazol-4-yl)pentanamide]
- Par-4 secretory properties (Par-4 secretion): retain Par-4 secretory properties

Structure (SMILES): CN(C)c1ccc2cc(-c3ccccc3F)c(=O)[nH]c2c1 [Arylquin 4, 7-(dimethylamino)-3-(2-fluorophenyl)quinolin-2(1H)-one]
- melting point: 247 to 248 °C

Structure (SMILES): C[C@H]1CCC/C=C/[C@@H]2C[C@H](O)C[C@H]2[C@H](O)/C=C/C(=O)O1 [Brefeldin A, reference compound]
- effect on basal and Arylquin 1-inducible Par-4 secretion (Par-4 secretion): inhibited basal as well as Arylquin 1-inducible Par-4 secretion

Structure (SMILES): COc1ccc(C2=N[C@@H](c3ccc(Cl)cc3)[C@@H](c3ccc(Cl)cc3)N2C(=O)N2CCNC(=O)C2)c(OC(C)C)c1 [Nutlin-3a, reference compound]
- Par-4 secretion ([1]; MEF cells): stimulated Par-4 secretion at micromolar levels
